# Test results reported in patent publication US11364275B2, “Linear lipopeptide paenipeptins and methods of using the same” (priority 2017, dated 2022).
# Like-named read-outs stand apart in the source and are kept apart here. Where a SMILES comes first, the peptide text is derived from it. [ ]: non-standard residue; d: D form. Cha = N[C@@H](CC1CCCCC1)C(=O)O; Dab = NCC[C@H](N)C(=O)O
# Experiments:
# [1] = test system: methicillin-resistant S. aureus strain LAC biofilm; experiment: Established catheter-associated biofilm in vitro; type: cell-based, Staphylococcus aureus; settings: for reduction of viable biofilm-associated cells: 72 h
# Experimental: (§1) Each well was inoculated with the methicillin-resistant S. aureus strain LAC or P. aeruginosa ATCC 27853 to an OD600nm of 0.05. […] After 72 h of exposure, catheters were rinsed with PBS, followed by sonication (for S. aureus) or vigorous vortexing (for P. aeruginosa) to quantitatively recover adherent bacteria. Viable S. aureus or P. aeruginosa cells were enumerated by plating serial dilutions on TSA.
# [2] = test system: Escherichia coli ATCC 25922; type: cell-based; settings: ATCC 25922
# E. coli ATCC 25922 [3] = type: cell-based, Escherichia coli; settings: E. coli; 95% serum vs TSB
# Experimental: (§2) The impact of human serum on the antibacterial activity of selected paenipeptin analogues was determined using a procedure similar to that used for MIC determination as described above except that the microbiological medium was replaced by human serum (MP Biomedicals, Solon, Ohio). Paenipeptin analogues were two-fold diluted in 100% human serum and mixed with an equal volume of 90% serum containing approximately 1.5×10^5 CFU/mL of E. coli ATCC 25922 or S. aureus ATCC 29213. The final paenipeptin concentrations ranged from 0.5-64 μg/mL in 95% serum. The MIC in the presence of serum was then tested as described above.
# P. aeruginosa ATCC 27853 [4] = type: cell-based, Pseudomonas aeruginosa
# Description: (§3) The surviving cells from each antimicrobial concentration with no visible growth were enumerated by plating on tryptic soy agar (TSA). MBC was defined as the lowest concentration of the antimicrobial agent that led to at least a 99.9% reduction in the number of viable bacterial cells relative to the initial inoculum. There were three independent experiments with one replicate in each experiment.
# S. aureus ATCC 29213 [5] = experiment: Impact of purified LTA on bactericidal activity; type: cell-based, Staphylococcus aureus; settings: analogue at 32 μg/mL, 60 min
# P. aeruginosa ATCC 27853 [6] = experiment: Impact of purified LPS on bactericidal activity; type: cell-based, Pseudomonas aeruginosa; settings: LPS 100 μg/ml; analogue at 16 μg/mL; 60 min
# Experimental: For studies with LPS, P. aeruginosa ATCC 27853 was diluted with TSB to contain approximately 10^6 CFU/mL. […] The mixtures were incubated at 37° C. with agitation at 200 rpm for 60 min. Surviving cells were quantified by plating on TSA. There were three independent experiments with one replicate in each experiment. […] There were four independent experiments with one replicate in each experiment.
# rabbit red blood cells = experiment: Hemolytic activity; type: cell-based; settings: relative to Triton X-100
# Summary of the method: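 Washed defibrinated rabbit RBCs in PBS pH 7.2 incubated 30 min at 37 °C with paenipeptin analogues at 16–128 μg/mL final. Released hemoglobin read at 415 nm in the supernatant; % hemolysis relative to 0.1% Triton X-100.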
# S. aureus ATCC 29213 [7] = type: cell-based, Staphylococcus aureus; settings: S. aureus; 95% serum vs TSB
# Experimental: as §2
# [8] = test system: Escherichia coli ATCC 25922; type: in vitro ADME
# Experimental: To determine the stability of peptides in human serum, paenipeptin analogues were added into 100% human serum to a final concentration of 64 μg/ml. The mixtures were incubated at 37° C. and samples were withdrawn at 0, 6, 12 and 24 h. […] The residual antibacterial activity after incubation in human serum was compared to the non-treated control.
# S. aureus ATCC 29213 [9] = experiment: Time-kill assay; type: cell-based, Staphylococcus aureus; settings: for reduction of viable cells: after 4 h
# Experimental: (§4) The surviving cells after antimicrobial treatment were enumerated at 0, 2, 4, 6 and 24 h by plating on TSA. There were three independent experiments with one replicate in each experiment
# P. aeruginosa ATCC 27853 [10] = experiment: Time-kill assay; type: cell-based, Pseudomonas aeruginosa
# Experimental: as §4
# [11] = test system: Acinetobacter baumannii ATCC 19606; type: cell-based; settings: A. baumannii
# [12] = test system: P. aeruginosa ATCC 27853 biofilm; experiment: Established catheter-associated biofilm in vitro; type: cell-based, Pseudomonas aeruginosa; settings: 40× MIC (40 μg/ml)
# Experimental: as §1
# E. coli ATCC 25922 [13] = type: cell-based, Escherichia coli
# Description: as §3
# [14] = test system: nine carbapenem-resistant clinical isolates from the FDA-CDC Antibiotic Resistance Bank; settings: range over nine carbapenem-resistant clinical isolates
# Experimental: The minimum inhibitory concentration (MIC) of paenipeptin analogues was determined using the broth microdilution method (Wirker, M. A. Methods for Dilution Antimicrobial Susceptibility Tests for Bacteria that Grow Aerobically: Approved Standard M07-A8; Clinical and Laboratory Standards Institute, Wayne, Pa., 2009).
# Paenipeptin analogues were two-fold diluted in tryptic soy broth (TSB; Becton Dickinson) and mixed with an equal volume of bacterial suspensions in TSB containing approximately 1.5×10^5 colony-forming units (CFU)/mL in a clear UV-sterilized 96-well microtiter plate (NBS, Corning Inc., Corning, N.Y.). […] The microtiter plate was incubated at 37° C. for 18-20 h.
# There were at least three independent experiments with one replicate in each experiment.
# [15] = test system: Klebsiella pneumoniae ATCC 13883; type: cell-based; settings: K. pneumoniae
# A. baumannii ATCC 19606 = type: cell-based, Acinetobacter baumannii
# Description: as §3
structure (smiles),measurement,setting,value
CC(C)C[C@H](NC(=O)[C@@H](Cc1ccccc1)NC(=O)[C@H](CCN)NC(=O)[C@H](Cc1ccccc1)NC(=O)[C@H](CCN)NC(=O)[C@@H](N)CC1CCCCC1)C(=O)N[C@@H](CCN)C(=O)N[C@H](CC(C)C)C(=O)N[C@@H](Cc1ccccc1)C(=O)N[C@@H](CO)C(N)=O [Analogue 17] (H-[Cha][Dab]F[Dab][dF]L[Dab][dL]FS-NH2),reduction of viable biofilm-associated cells,[1]; 40 μg/mL (5×MIC),3 log
same,reduction of viable biofilm-associated cells,[1]; 160 μg/mL (20×MIC),5 log
same,catheters completely cleared of viable bacteria,"[1]; 20 times MIC, six catheters",50%
same,MIC,[2],0.5 to 1 µg/mL
same,reduction in activity in the presence of human serum,E. coli ATCC 25922 [3],88-94%
same,MBC,P. aeruginosa ATCC 27853 [4],2 to 4 µg/mL
same,impact of purified LTA on antibacterial activity,S. aureus ATCC 29213 [5]; LTA 50 μg/ml,some inhibition
same,impact of purified LTA on antibacterial activity,S. aureus ATCC 29213 [5]; LTA 100 μg/mL,significantly reduced the antibacterial activity
same,impact of purified LPS on bactericidal activity,P. aeruginosa ATCC 27853 [6],neutralized the bactericidal activity
same,Hemolysis,rabbit red blood cells; 16 μg/mL,0.60 ± 0.18%
same,Hemolysis,rabbit red blood cells; 32 μg/mL,2.46 ± 0.34%
same,Hemolysis,rabbit red blood cells; 64 μg/mL,11.02 ± 0.99%
same,Hemolysis,rabbit red blood cells; 128 μg/mL,34.6 ± 0.91%
same,reduction in activity in the presence of human serum,S. aureus ATCC 29213 [7],88-94%
same,MIC after incubation in human serum at 37° C.,"[8]; ATCC 25922, 0 h",4 to 8 µg/mL
same,MIC after incubation in human serum at 37° C.,"[8]; ATCC 25922, 6 h",4 to 8 µg/mL
same,MIC after incubation in human serum at 37° C.,"[8]; ATCC 25922, 12 h",4 to 8 µg/mL
same,regrowth,S. aureus ATCC 29213 [9]; 8 μg/ml,Regrowth
same,reduction of viable cells,S. aureus ATCC 29213 [9]; 16 μg/ml,3.1 logs
same,reduction of viable cells,S. aureus ATCC 29213 [9]; 32 μg/ml,5.4 logs
same,reduction of viable cells,"P. aeruginosa ATCC 27853 [10]; 8 μg/ml, 2 h",2.2 log
same,regrowth at 24 h,"P. aeruginosa ATCC 27853 [10]; 8 μg/ml, 24 h",significant bacterial regrowth was observed
same,viable cells after 24 h exposure,"P. aeruginosa ATCC 27853 [10]; 16 μg/ml, 24 h",no viable cells were detected
same,reduction of viable cells,"P. aeruginosa ATCC 27853 [10]; 16 μg/ml, within 2 h",3.7 logs
same,viable cells after 24 h exposure,"P. aeruginosa ATCC 27853 [10]; 32 μg/ml, 24 h",no viable cells were detected
same,reduction of viable cells,"P. aeruginosa ATCC 27853 [10]; 32 μg/ml, within 2 h",5.1 logs
same,improvement in antibacterial activity by comparison to compound 8,[11],≥ 4 fold
same,reduction of viable cells in established biofilm,[12],2.6 log
same,MBC,E. coli ATCC 25922 [13],8 to 16 µg/mL
same,MIC,[14],0.5 to 2 µg/mL
same,improvement in antibacterial activity by comparison to compound 8,[15],≥ 4 fold
same,MBC,A. baumannii ATCC 19606,4 to 8 µg/mL
